Test results: patent publication US12064420B2, “Tie-2 activators targeting the Schlemm's canal” (EyePoint Pharmaceuticals, Inc., priority 2019, dated 2024)

System: ocular normotensive human patients with diabetic eye disease
Assay: Phase 2 trial: IOP after subcutaneous Compound 1 alone or with intravitreal ranibizumab, diabetic macular edema
Type: in vivo
Protocol: IOP in patients were measured using a double-masked, parallel-group designed to assess the effects of subcutaneous (SC) Compound 1 (sodium salt) alone, or as an adjunct to intravitreal ranibizumab trial. 144 human subjects with diabetic retinopathy complicated by center-involved diabetic macular edema (DME) were randomized to 3 months of one of 3 treatments: 1) Compound 1 (15 mg) SC twice daily (BID) plus sham monthly intravitreal injection (IVT); 2) Compound 1 SC BID plus ranibizumab (0.3 mg) monthly IVT; and 3) Placebo SC BID+ranibizumab IVT. At baseline, mean age was 61.3±1.3 years; 59% of subjects were male; 82.6% had Type 2 diabetes; mean HBA1c was 7.5%±1.3%; mean best corrected visual acuity was 60.2 ETDRS letters (Snellen 20/63); and mean IOP was 15.7 mmHg±3.4. Ophthalmic safety assessments were performed at baseline and monthly during the 3-month treatment period including a single IOP measurement by applanation tonometry in both the study eye and the fellow eye at each time point. By protocol, all patients had baseline IOP<24 mmHg (ocular normotensive).
In the pre-specified safety analysis, change from baseline IOP was analyzed using a t-test (null hypothesis 0 change from baseline). The level of significance was set at 0.05. A post hoc analysis of the subject level IOP measure was the change from baseline in the average over both eyes within a subject for each timepoint. Statistical testing of each timepoint was completed using ANCOVA with baseline IOP (averaged over both eyes within a subject) as covariate. Additionally, statistical testing averaging across all timepoints was completed using a mixed-model repeated measures ANCOVA. The level of significance was set at 0.05.

[1] = average of study eye and fellow eye, week 4
[2] = average of study eye and fellow eye, week 8
[3] = average of study eye and fellow eye, week 12

ranibizumab [Placebo + ranibizumab, reference compound]
Week 4 subject-level IOP change from BL, mean (SD) [1]: −0.2 (2.61) mmHg | Week 4 subject-level IOP, mean (SD) [1]: 15.2 (3.50) mmHg | Week 8 subject-level IOP change from BL, mean (SD) [2]: 0.2 (2.86) mmHg | Week 8 subject-level IOP, mean (SD) [2]: 15.3 (3.31) mmHg | Week 12 subject-level IOP change from BL, mean (SD) [3]: 0.0 (3.32) mmHg | Week 12 subject-level IOP, mean (SD) [3]: 15.5 (3.85) mmHg | Week 4 IOP change from BL, mean (SD) (fellow eye (FE), week 4): −0.3 (3.49) mmHg | Week 4 IOP, mean (SD) (fellow eye (FE), week 4): 15.5 (4.85) mmHg | Week 8 IOP change from BL, mean (SD) (fellow eye (FE), week 8): −0.3 (3.44) mmHg | Week 8 IOP, mean (SD) (fellow eye (FE), week 8): 15.5 (4.52) mmHg | Week 12 IOP change from BL, mean (SD) (fellow eye (FE), week 12): −0.1 (3.62) mmHg | Week 12 IOP, mean (SD) (fellow eye (FE), week 12): 15.7 (5.19) mmHg | Week 4 IOP change from BL, mean (SD) (study eye (SE), week 4): −0.1 (2.74) mmHg | Week 4 IOP, mean (SD) (study eye (SE), week 4): 15.0 (3.50) mmHg | Week 8 IOP change from BL, mean (SD) (study eye (SE), week 8): 0.0 (3.25) mmHg | Week 8 IOP, mean (SD) (study eye (SE), week 8): 15.0 (3.61) mmHg | Week 12 IOP change from BL, mean (SD) (study eye (SE), week 12): 0.1 (3.83) mmHg | Week 12 IOP, mean (SD) (study eye (SE), week 12): 15.3 (4.09) mmHg | mean change in IOP from baseline (study or fellow eye, all time points): −0.3 to +0.1 mmHg
